Data on 26 compounds can be found in patent publication US8314098B2, “Pyrazolo-pyrimidine compounds” (Ajinomoto Co., Inc., priority 2008, dated 2012).

Assay type in all cases: cell-based
Experiment [1] deals with IL-12p70 (the complex of IL-12p35 and p40). Nature of the experiment: IL-12p70 production inhibition in macrophages derived from mouse abdomen (IFN-γ/SAC stimulation, ELISA). The settings on record: Macrophage; mouse (Balb/c) abdominal macrophages, 100 ng/mL mouse IFN-γ + 0.05% SAC, overnight; TFA salts tested where prepared as such; read-out: IL-12p70-Inhibitory Activity IC50. On the procedure:
(§1) One milliliter each of a 3% (w/v) thioglycolate solution was intraperitoneally administered to mice (female Balb/c mice), the abdominal cells of each mouse were recovered after 5 or 6 days from the administration of the thioglycolate solution and the adhesive cells were collected and used in the exaluation procedures. To a culture medium containing such adhesive cells, there were added 100 ng/mL of mouse interferon-γ and a 0.05% (v/v) liquid containing killed cells derived from Staphylococcus aureus Cowan I strain (SAC) and a candidate compound and then the mixture was cultivated overnight. After the completion of the cultivation, the survival ratios were determined, there were quantitatively determined the quantities of IL-12p70 (the complex of IL-12p35 and p40) and IL-12p40 or TNF-α according to the ELISA assays while making use of the recovered supernatant of the culture medium and the 50% production-inhibitory concentration (IC50) was calculated for each case (see Table 1 and Tables 1-9 for IL-12p70 and TNF-α and Tables 1 to 10 for IL-12p40).
Background: ELISA stands for enzyme-linked immunosorbent assay.

In another experiment the test system is TNF-α. Briefly: TNF-α production inhibition in macrophages derived from mouse abdomen (IFN-γ/SAC stimulation, ELISA). The note with it: Macrophage; mouse (Balb/c) abdominal macrophages, 100 ng/mL mouse IFN-γ + 0.05% SAC, overnight; TFA salts tested where prepared as such; read-out: TNF-α-Inhibitory Activity IC50. On the procedure: as §1
Experiment [2] has as its system IL-12p70 (the complex of IL-12p35 and p40). Briefly: IL-12p70 production inhibition in whole blood of mouse (IFN-γ/SAC stimulation, ELISA). The note with it: mouse (Balb/c) whole blood, EDTA, 100 ng/mL mouse IFN-γ + 1.25% SAC, overnight; TFA salts tested where prepared as such. On the procedure: The blood was recovered from the mice (female Balb/c mice) (containing added EDTA) and it was used for the evaluation. To a cell culture medium, there were added 100 ng/mL of mouse interferon-γ, 1.25% (v/v) of a liquid containing killed cells derived from Staphylococcus aureus Cowan I strain (SAC) and a candidate compound, the resulting mixture was diluted to a volume equivalent to the blood and then the diluted medium was cultivated overnight. After the completion of the cultivation, the amount of IL-12p70 (the complex of IL-12p35 and p40) was quantitatively determined according to the ELISA assays while making use of the recovered supernatant of the culture medium and the 50% production-inhibitory concentrations (IC50) were calculated for Compounds 38, 80, 82, 83, 84, 85, 87, 90 and 91. (see Table 3).

As to `Cc1cccc(/C=N/Nc2cc(N3CCOCC3)n3nc(-c4ccc(N5CCN(C(=O)OC(C)(C)C)CC5)cc4)cc3n2)c1` [Compound 19, N-[2-{4-(4-t-butoxycarbonyl-piperazin-1-yl)-phenyl}-7-morpholin-4-yl-pyrazolo[1,5-a]pyrimidin-5-yl]-N′-(3-methyl-benzylidene)-hydrazine], the IC50 in experiment [1] was 60 nM; in the experiment on TNF-α, over 10000 nM.
For `Cc1cccc(/C=N/Nc2cc(N3CCOCC3)n3nc(-c4ccccn4)cc3n2)c1` [Compound 20, N-(3-methyl-benzylidene)-N′-(7-morpholin-4-yl-2-pyridin-2-yl-pyrazolo[1,5-a]pyrimidin-5-yl)-hydrazine] the same measures were 8 nM and over 10000 nM.
Consider `Cc1cccc(/C=N/Nc2cc(N3CCOCC3)n3nc(-c4ccc(N5CCNCC5)cc4)cc3n2)c1` [Compound 21, N-(3-methyl-benzylidene)-N′-{7-morpholin-4-yl-2-(4-piperazin-1-yl-phenyl)-pyrazolo[1,5-a]pyrimidin-5-yl}-hydrazine], for which the values for the half-maximal inhibitory concentration (IC50) (in experiment [1]; in the experiment on TNF-α) were 22 nM and over 10000 nM, respectively.
In the case of `CC(=O)N1CCN(c2ccc(-c3cc4nc(N/N=C/c5cccc(C)c5)cc(N5CCOCC5)n4n3)cc2)CC1` [Compound 22, N-[2-{4-(4-acetyl-piperazin-1-yl)-phenyl}-7-morpholin-4-yl-pyrazolo[1,5-a]pyrimidin-5-yl]-N′-(3-methyl-benzylidene)-hydrazine], the IC50 is 5 nM in experiment [1] and over 10000 nM with TNF-α.
Turning to `CCN(CC)c1ccc(-c2cc3nc(N/N=C/c4cccc(C)c4)cc(N4CCOCC4)n3n2)cc1` [Compound 23, N-{2-(4-diethyl-amino-phenyl)-7-morpholin-4-yl-pyrazolo-[1,5-a]pyrimidin-5-yl}-N′-(3-methyl-benzylidene)-hydrazine], the IC50 in experiment [1] is 14 nM; with TNF-α, over 10000 nM.
Consider `COCCNc1ccc(-c2cc3nc(N/N=C/c4cccc(C)c4)cc(N4CCOCC4)n3n2)cc1` [Compound 24, N-[2-{4-(2-methoxy-ethyl-amino)-phenyl}-7-morpholin-4-yl-pyrazolo[1,5-a]pyrimidin-5-yl]-N′-(3-methyl-benzylidene)-hydrazine], for which the IC50 in experiment [1] is 6 nM; in the experiment with TNF-α, over 10000 nM.
For `COc1cccc(/C=N/Nc2cc(N3CCOCC3)n3nc(-c4ccccc4)cc3n2)c1` [Compound 29, N-(3-methoxy-benzylidene)-N′-(7-morpholin-4-yl-2-phenyl-pyrazolo[1,5-a]pyrimidin-5-yl)-hydrazine] the same measures were 40 nM and over 10000 nM.
Consider `CCCCC(=O)N1CCN(c2ccc(-c3cc4nc(N/N=C/c5cccc(C)c5)cc(N5CCOCC5)n4n3)cc2)CC1` [Compound 31, N-(3-methyl-benzylidene)-N′-{7-morpholin-4-yl-2-[4-(1-oxo-pentan-1-yl)piperazin-1-yl-phenyl]-pyrazolo[1,5-a]pyrimidin-5-yl}-hydrazine], for which the IC50 in experiment [1] is 18 nM; in the experiment with TNF-α, over 10000 nM.
For `Cc1cccc(CNNc2cc(N3CCOCC3)n3nc(-c4ccccc4)cc3n2)c1` [Compound 34, N-(3-methyl-benzyl)-N′-(7-morpholin-4-yl-2-phenyl-pyrazolo[1,5-a]pyrimidin-5-yl)-hydrazine] the same measures were 24 nM and over 10000 nM.
For `C(=N\Nc1cc(N2CCOCC2)n2nc(-c3ccccn3)cc2n1)/c1c[nH]c2ccccc12` [Compound 36, N-(1H-indol-3-yl-methylidene)-N′-(7-morpholin-4-yl-2-pyridin-2-yl-pyrazolo[1,5-a]pyrimidin-5-yl)-hydrazine] the same measures were 7 nM and over 10000 nM.
On the same counts, the results for `COc1ccc(C)cc1/C=N/Nc1cc(N2CCOCC2)n2nc(-c3ccccc3)cc2n1` [Compound 40, N-(2-methoxy-5-methyl-benzylidene)-N′-(7-morpholin-4-yl-2-phenyl-pyrazolo[1,5-a]pyrimidin-5-yl)-hydrazine] are 64 nM and over 10000 nM.
For the compound `Cc1cccc(/C=N/Nc2cc(N3CCOCC3)n3nc(-c4ccc(NN5CCOCC5)cc4)cc3n2)c1` [Compound 68], the values for the IC50 (in experiment [1]; in the experiment with TNF-α) were 8.7 nM and over 10000 nM, respectively.
On the same counts, the results for `Cc1cccc(/C=N/Nc2cc(N3CCOCC3)n3nc(-c4ccc(N5CCSCC5)cc4)cc3n2)c1` [Compound 69, N-(3-methyl-benzylidene)-N′-{7-morpholin-4-yl-2-(4-thiomorpholin-4-yl-phenyl)-pyrazolo[1,5-a]pyrimidin-5-yl}-hydrazine] are 8.2 nM and over 10000 nM.
In the case of `Cc1cccc(/C=N/Nc2cc(N3CCOCC3)n3nc(C)cc3n2)c1` [Compound 79, N-(3-methyl-benzylidene)-N′-(2-methyl-7-morpholin-4-yl-pyrazolo[1,5-a]pyrimidin-5-yl)-hydrazine], the figures for the IC50 (in experiment [1]; with TNF-α) were 220 nM and over 10000 nM, respectively.
Consider `CCOC(=O)c1cc2nc(N/N=C/c3cccc(C)c3)cc(N3CCOCC3)n2n1` [Compound 81, N-(2-ethoxycarbonyl-7-morpholin-4-yl-pyrazolo[1,5-a]-pyrimidin-5-yl)-N′-(3-methyl-benzylidene)-hydrazine], for which the results for the IC50 (in experiment [1]; with TNF-α) were 55 nM and over 10000 nM, respectively.
Regarding `Cc1cccc(/C=N/Nc2cc(N3CCOCC3)n3ncc(-c4ccccn4)c3n2)c1` [Compound 87, N-(3-methyl-benzylidene)-N′-(7-morpholin-4-yl-3-pyridin-2-yl-pyrazolo[1,5-a]pyrimidin-5-yl)-hydrazine], the IC50 in experiment [2] is 2400 nM.
Consider `C(=N\Nc1cc(N2CCOCC2)n2ncc(-c3ccccn3)c2n1)/c1c[nH]c2ccccc12` [Compound 88, N-(1H-indol-3-yl-methylidene)-N′-(7-morpholin-4-yl-3-pyridin-2-yl-pyrazolo[1,5-a]pyrimidin-5-yl)-hydrazine], for which the IC50 in experiment [1] is 420 nM; with TNF-α, over 10000 nM.
On to `Cc1cccc(/C=N/Nc2cc(N3CCOCC3)n3nc(-c4cnccn4)cc3n2)c1` [Compound 90, N-(3-methyl-benzylidene)-N′-(7-morpholin-4-yl-2-pyrazin-2-yl-pyrazolo[1,5-a]pyrimidin-5-yl)-hydrazine], for which the IC50 came to 8.3 nM in experiment [1] and 2500 nM in experiment [2].
Take `C(=N\Nc1cc(N2CCOCC2)n2nc(-c3ccncc3)cc2n1)/c1ccsc1` [Compound 91, N-(7-morpholin-4-yl-2-pyridin-4-yl-pyrazolo[1,5-a]-pyrimidin-5-yl)-N′-thiophen-3-yl-methylidene-hydrazine]: the values for the IC50 in experiment [1] and in experiment [2] were 48 nM and 4600 nM, respectively.
On the same counts, the results for `Cc1cccc(/C=N/Nc2cc(N3CCOCC3)n3nc(-c4ccnnc4)cc3n2)c1` [Compound 94, N-(3-methyl-benzylidene)-N-(7-morpholin-4-yl-2-pyridazin-4-yl-pyrazolo[1,5-a]pyrimidin-5-yl)-hydrazine] are 18 nM and 1000 nM.
For `C(=N\Nc1cc(N2CCOCC2)n2nc(-c3ccncc3)cc2n1)/c1coc2ccccc12` [Compound 95] the same measures were 28 nM and 810 nM.
For `C(=N\Nc1cc(N2CCOCC2)n2nc(-c3ccncc3)cc2n1)/c1cc2ccccc2o1` [Compound 96] the same measures were 50 nM and 1100 nM.
`C(=N\Nc1cc(N2CCOCC2)n2nc(-c3ccnnc3)cc2n1)/c1c[nH]c2ccccc12` [Compound 97, N-(1H-indol-3-yl-methylidene)-N-(7-morpholin-4-yl-2-pyridazin-4-yl-pyrazolo[1,5-a]pyrimidin-5-yl)-hydrazine]: the IC50 is 8.3 nM in experiment [1] and 3200 nM in experiment [2].
As to `C(=N\Nc1cc(N2CCOCC2)n2nc(-c3ccncc3)cc2n1)/c1ccc2[nH]ccc2c1` [Compound 104], the concentration for half-maximal inhibition (IC50) was 100 nM in experiment [1] and 2500 nM in experiment [2].
On the same counts, the results for `C(=N\Nc1cc(N2CCOCC2)n2nc(-c3ccncc3)cc2n1)/c1cc2ccccc2s1` [Compound 108, N-benzo[b]thiophen-2-yl-methylidene-N′-(7-morpholin-4-yl-2-pyridin-4-yl-pyrazolo[1,5-a]pyrimidin-5-yl)-hydrazine] are 110 nM and 3700 nM.
Take `Nc1cccc(/C=N/Nc2cc(N3CCOCC3)n3nc(-c4ccccc4)cc3n2)c1` [Compound 140, N-(3-amino-benzylidene)-N-(7-morpholin-4-yl-2-phenyl-pyrazolo[1,5-a]pyrimidin-5-yl)-hydrazine]: the IC50 in experiment [1] is 170 nM; in the experiment on TNF-α, over 10000 nM.

One may read the IC50 as the point on the concentration scale where inhibition reaches its midpoint.
